Assay results: patent US20090208981A1, “Method for Analysis of Interaction Between Small Molecules and Cells and Apparatus thereof” (priority 2005, published 2009)

Tested on: peripheral blood mononuclear cell (PBMC)
Test: Cell chromatography retention time of drug-treated PBMC on polystyrene column (150 mm×10 mm), detection at 500 nm
Format: cell-based
Details: PBMC treated with 10 μg/ml for 2 minutes; PBS pH 7.4, 1 ml/min; un-treated control about 7.7 minutes; FIG. 3
Method: In this example, the column used for analysis of the interaction between small molecule and cell has an inner diameter of 10 mm, a length of 150 mm and a volume of 11.8 ml (150 mm×10 mm). This column was packed with resin particles (size: 1 or 2 millimeter; material: polystyrene) and was washed first and thereafter, filled with a phosphate buffered saline (PBS).
The method is similar as described as above. Whole Blood was separated first by centrifugation using dextran cell separation medium (Ficoll) to yield peripheral blood mononuclear cell (PBMC). Then PBMC was diluted with phosphate buffered saline (PBS) into a cell suspension at concentration of 1×10^6 cells/ml.
Lectin: treated PBMC by 10 μg/ml lectin for two minutes;
Shikonin: treated PBMC by 10 μg/ml shikonin for two minutes.
The cell suspension was added with lectin or shikonin at a concentration of 10 μg/ml (lectin treated group or shikonin treated group). After reacting for 2 minutes, drug-treaded group or un-treated group (control) was loaded on the upper frontier of the column (150 mm×10 mm) respectively, and after adding PBS (pH 7.4) to a level of a pre-determined height, the column was eluted with PBS (pH 7.4) at a steady flow rate of 1 ml/min provided under the action of a pump and integrated with a spectrophotometer, which eluted cells were continuously detected with a wavelength of 500 nm. […]

CC(C)=CC[C@@H](O)C1=CC(=O)c2c(O)ccc(O)c2C1=O [shikonin]
retention time of treated cell in the column: 6.5 min
